How the values were obtained:
[1] = molecular target: T1, BRM (Homo sapiens, UniProt P51531); test: ATPase catalytic activity of BRM, ADP-Glo in vitro biochemical assay; settings: ATPase catalytic activity, 30 nM BRM, 400 μM ATP, read-out: BRM IP50 (μM)*
T1 construct: made in house; host or cells: High Five insect cells

[2] = molecular target: T2, BRG-1 (Homo sapiens, UniProt P51532); test: ATPase catalytic activity of BRG-1, ADP-Glo in vitro biochemical assay; settings: ATPase catalytic activity, 30 nM BRG-1, 400 μM ATP, read-out: BRG1 IP50 (μM)*
T2 construct: made in house; host or cells: High Five insect cells
T2 sequence (P51532 whole entry): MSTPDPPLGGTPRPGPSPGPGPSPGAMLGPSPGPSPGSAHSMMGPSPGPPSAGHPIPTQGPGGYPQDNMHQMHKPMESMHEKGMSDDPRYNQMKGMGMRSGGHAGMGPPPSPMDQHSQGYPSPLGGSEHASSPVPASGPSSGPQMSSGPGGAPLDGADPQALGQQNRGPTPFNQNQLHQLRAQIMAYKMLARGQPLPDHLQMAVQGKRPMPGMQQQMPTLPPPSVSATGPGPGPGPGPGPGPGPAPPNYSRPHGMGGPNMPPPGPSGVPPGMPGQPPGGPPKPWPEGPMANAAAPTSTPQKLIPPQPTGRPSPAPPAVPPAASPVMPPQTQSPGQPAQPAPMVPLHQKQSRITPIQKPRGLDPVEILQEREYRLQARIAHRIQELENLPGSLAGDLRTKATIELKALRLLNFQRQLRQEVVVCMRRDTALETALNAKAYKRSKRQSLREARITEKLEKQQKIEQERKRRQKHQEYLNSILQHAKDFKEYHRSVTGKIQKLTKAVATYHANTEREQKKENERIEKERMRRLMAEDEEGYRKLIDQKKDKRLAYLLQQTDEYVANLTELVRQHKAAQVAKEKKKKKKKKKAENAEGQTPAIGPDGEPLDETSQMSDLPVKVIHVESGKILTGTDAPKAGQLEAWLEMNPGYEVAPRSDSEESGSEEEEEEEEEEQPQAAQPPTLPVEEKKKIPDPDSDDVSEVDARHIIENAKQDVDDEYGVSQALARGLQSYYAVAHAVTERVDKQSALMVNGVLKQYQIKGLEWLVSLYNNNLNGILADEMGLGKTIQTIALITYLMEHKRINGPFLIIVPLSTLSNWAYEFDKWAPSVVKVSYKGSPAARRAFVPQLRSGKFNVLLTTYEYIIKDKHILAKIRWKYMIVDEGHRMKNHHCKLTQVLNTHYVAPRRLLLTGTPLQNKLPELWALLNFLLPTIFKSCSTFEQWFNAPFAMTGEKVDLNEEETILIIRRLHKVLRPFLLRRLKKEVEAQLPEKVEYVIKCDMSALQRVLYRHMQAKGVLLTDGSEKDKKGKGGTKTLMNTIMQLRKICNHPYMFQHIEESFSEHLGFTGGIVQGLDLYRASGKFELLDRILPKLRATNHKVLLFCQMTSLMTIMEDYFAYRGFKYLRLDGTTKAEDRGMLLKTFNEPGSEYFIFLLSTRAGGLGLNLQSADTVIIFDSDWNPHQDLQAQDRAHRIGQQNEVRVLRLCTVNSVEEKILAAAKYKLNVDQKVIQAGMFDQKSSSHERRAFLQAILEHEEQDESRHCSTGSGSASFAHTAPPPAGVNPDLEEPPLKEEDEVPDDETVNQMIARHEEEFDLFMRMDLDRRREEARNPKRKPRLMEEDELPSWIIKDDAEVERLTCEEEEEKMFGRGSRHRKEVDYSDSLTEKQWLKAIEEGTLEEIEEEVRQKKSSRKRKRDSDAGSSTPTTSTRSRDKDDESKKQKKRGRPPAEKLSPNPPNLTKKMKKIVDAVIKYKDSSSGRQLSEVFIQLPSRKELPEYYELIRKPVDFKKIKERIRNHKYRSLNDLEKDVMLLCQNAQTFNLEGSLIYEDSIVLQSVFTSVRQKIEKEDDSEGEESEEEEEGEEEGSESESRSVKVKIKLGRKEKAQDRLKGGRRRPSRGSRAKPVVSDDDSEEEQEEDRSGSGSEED

T1 sequence (P51531 whole entry): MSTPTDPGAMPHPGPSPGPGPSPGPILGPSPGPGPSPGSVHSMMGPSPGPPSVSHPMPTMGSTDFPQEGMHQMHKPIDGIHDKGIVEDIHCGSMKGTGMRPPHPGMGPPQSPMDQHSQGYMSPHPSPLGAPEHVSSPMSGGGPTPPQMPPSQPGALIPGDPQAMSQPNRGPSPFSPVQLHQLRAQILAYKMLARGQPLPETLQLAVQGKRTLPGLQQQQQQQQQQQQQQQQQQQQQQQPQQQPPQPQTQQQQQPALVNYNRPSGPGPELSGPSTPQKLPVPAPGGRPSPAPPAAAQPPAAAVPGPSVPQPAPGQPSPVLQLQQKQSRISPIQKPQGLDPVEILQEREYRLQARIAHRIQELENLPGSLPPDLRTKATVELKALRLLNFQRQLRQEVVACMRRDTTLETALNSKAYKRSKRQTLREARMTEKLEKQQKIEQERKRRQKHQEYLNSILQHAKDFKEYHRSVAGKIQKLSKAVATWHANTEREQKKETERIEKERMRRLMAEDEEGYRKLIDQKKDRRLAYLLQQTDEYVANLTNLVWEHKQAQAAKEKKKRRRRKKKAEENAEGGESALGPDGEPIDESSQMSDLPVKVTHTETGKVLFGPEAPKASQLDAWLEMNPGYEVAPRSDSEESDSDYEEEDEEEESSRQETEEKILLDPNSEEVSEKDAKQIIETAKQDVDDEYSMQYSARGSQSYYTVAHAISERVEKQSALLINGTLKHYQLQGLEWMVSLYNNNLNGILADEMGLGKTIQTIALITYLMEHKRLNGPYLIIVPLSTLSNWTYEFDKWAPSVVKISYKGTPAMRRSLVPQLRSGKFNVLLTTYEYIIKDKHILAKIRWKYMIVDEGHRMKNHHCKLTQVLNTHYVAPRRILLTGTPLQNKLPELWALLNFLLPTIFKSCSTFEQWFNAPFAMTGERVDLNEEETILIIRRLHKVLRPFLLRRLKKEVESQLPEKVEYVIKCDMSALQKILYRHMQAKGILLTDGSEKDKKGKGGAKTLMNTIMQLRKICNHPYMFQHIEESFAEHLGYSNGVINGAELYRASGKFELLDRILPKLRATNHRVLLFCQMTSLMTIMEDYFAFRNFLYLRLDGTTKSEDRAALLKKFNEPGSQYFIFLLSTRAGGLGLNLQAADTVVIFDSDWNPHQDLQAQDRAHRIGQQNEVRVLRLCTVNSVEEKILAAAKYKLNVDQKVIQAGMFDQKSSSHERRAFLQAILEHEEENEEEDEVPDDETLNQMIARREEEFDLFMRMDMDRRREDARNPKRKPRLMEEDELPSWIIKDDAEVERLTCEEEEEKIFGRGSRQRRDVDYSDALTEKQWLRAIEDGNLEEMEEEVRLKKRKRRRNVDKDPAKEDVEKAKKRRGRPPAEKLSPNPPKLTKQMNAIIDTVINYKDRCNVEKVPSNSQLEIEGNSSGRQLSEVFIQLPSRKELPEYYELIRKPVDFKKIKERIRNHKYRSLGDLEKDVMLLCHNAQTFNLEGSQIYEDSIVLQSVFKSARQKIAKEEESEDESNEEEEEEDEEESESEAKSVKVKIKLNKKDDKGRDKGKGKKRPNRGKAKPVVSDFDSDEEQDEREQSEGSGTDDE

Row | IC50 [1] [µM] | IC50 [2] [µM] | Compound
1 | > 0.01 | > 0.01 | CN1CCCc2ccc(-c3csc(NC(=O)CNC(=O)c4ccn(C(C)(C)C)c4)n3)cc21 [Compound 305]
2 | > 0.01 | > 0.01 | CN1CCCc2ccc(-c3csc(NC(=O)CNC(=O)c4ccn(S(C)(=O)=O)c4)n3)cc21 [Compound 306]
3 | > 0.01 | > 0.01 | CS(=O)(=O)n1ccc(C(=O)NCC(=O)Nc2nc(-c3cccc(OCC4CCC4)c3)cs2)c1 [Compound 307]
4 | > 0.01 | > 0.01 | CC(C)(C)n1ccc(C(=O)NCC(=O)Nc2nc(-c3ccc4c(c3)OCC4)cs2)c1 [Compound 308]
5 | > 0.01 | > 0.01 | CS(=O)(=O)n1ccc(C(=O)NCC(=O)Nc2nc(-c3ccc4c(c3)OCC4)cs2)c1 [Compound 309]
6 | > 0.01 | > 0.01 | CO[C@H]1CCCN(c2cccc(-c3csc(NC(=O)CNC(=O)c4ccn(C(C)(C)C)c4)n3)n2)C1 [Compound 311]
7 | > 0.01 | > 0.01 | CO[C@@H]1CCCN(c2cccc(-c3csc(NC(=O)CNC(=O)c4ccn(C(C)(C)C)c4)n3)n2)C1 [Compound 312]
8 | > 0.1 | > 0.1 | CO[C@H]1CCCN(c2cccc(-c3csc(NC(=O)CNC(=O)c4ccn(C5(C)COC5)c4)n3)n2)C1 [Compound 313]
9 | > 0.01 | > 0.01 | CC(C)(C)n1ccc(C(=O)NCC(=O)Nc2nc(-c3cccc(N4CCC(O)CC4)n3)cs2)c1 [Compound 314]
10 | < 0.01 | > 0.01 | C[C@@H]1CN(c2cccc(-c3csc(NC(=O)CNC(=O)c4ccn(C5(C)COC5)c4)n3)n2)C[C@H](C)O1 [Compound 316]
11 | > 0.1 | > 0.1 | CC(C)(C)n1ccc(C(=O)NCC(=O)Nc2nc(-c3cccc(N4CC(N5CCOCC5)C4)n3)cs2)c1 [Compound 317]
12 | > 0.01 | > 0.01 | COC[C@@H]1CCCN(c2cccc(-c3csc(NC(=O)CNC(=O)c4ccn(C(C)(C)C)c4)n3)n2)C1 [Compound 318]
13 | > 0.01 | > 0.01 | COC[C@H]1CCCN(c2cccc(-c3csc(NC(=O)CNC(=O)c4ccn(C(C)(C)C)c4)n3)n2)C1 [Compound 319]
14 | > 0.01 | > 0.1 | CC1(n2ccc(C(=O)NCC(=O)Nc3nc(-c4ccnc(N5CCC(O)CC5)n4)cs3)c2)COC1 [Compound 321]
15 | > 0.01 | > 0.01 | CC(C)(C)n1ccc(C(=O)NCC(=O)Nc2nc(-c3ccnc(N4CCC(O)CC4)n3)cs2)c1 [Compound 322]
16 | > 0.01 | > 0.01 | C[C@@H]1CN(c2nccc(-c3csc(NC(=O)CNC(=O)c4ccn(C5(C)COC5)c4)n3)n2)C[C@H](C)O1 [Compound 324]
17 | < 0.01 | < 0.01 | C[C@@H]1CN(c2nccc(-c3csc(NC(=O)CNC(=O)c4ccn(S(C)(=O)=O)c4)n3)n2)C[C@H](C)O1 [Compound 325]
18 | < 0.01 | > 0.01 | C[C@@H]1CN(c2nccc(-c3csc(NC(=O)CNC(=O)c4ccn(C(C)(C)C)c4)n3)n2)C[C@H](C)O1 [Compound 326]
19 | > 0.01 | > 0.01 | Cn1ccc(-c2cccc(-c3csc(NC(=O)CNC(=O)c4ccn(C5(C)COC5)c4)n3)n2)n1 [Compound 327, 1-(3-methyloxetan-3-yl)-N-[2-[[4-[6-(1-methylpyrazol-3-yl)-2-pyridyl]thiazol-2-yl]amino]-2-oxo-ethyl]pyrrole-3-carboxamide]
20 | > 0.1 | > 0.1 | CO[C@@H]1CCCN(c2cccc(-c3csc(NC(=O)CNC(=O)c4ccn(C5(C)COC5)c4)n3)n2)C1 [Compound 330]

More lines, now with the values behind:

Row | Compound | IC50 [1] [µM] | IC50 [2] [µM]
21 | CN1CCOc2ccc(-c3csc(NC(=O)CNC(=O)c4ccn(S(C)(=O)=O)c4)n3)cc21 [Compound 282] | < 0.01 | < 0.01
22 | CN1CCOc2ccc(-c3csc(NC(=O)CNC(=O)c4ccn(C(C)(C)C)c4)n3)cc21 [Compound 283] | > 0.01 | > 0.01
23 | CS(=O)(=O)n1ccc(C(=O)NCC(=O)Nc2nc(-c3cccc(OC4CCC4)c3)cs2)c1 [Compound 284] | > 0.01 | > 0.01
24 | CS(=O)(=O)n1ccc(C(=O)NCC(=O)Nc2nc(-c3cccc(OC(F)F)c3)cs2)c1 [Compound 285] | > 0.01 | > 0.01
25 | CCOc1cccc(-c2csc(NC(=O)CNC(=O)c3ccn(S(C)(=O)=O)c3)n2)c1 [Compound 286] | > 0.01 | > 0.01
26 | CN(C)c1cccc(-c2csc(NC(=O)CNC(=O)c3ccn(S(C)(=O)=O)c3)n2)c1 [Compound 287] | < 0.01 | > 0.01
27 | CN(C)c1cccc(-c2csc(NC(=O)CNC(=O)c3ccn(C(C)(C)C)c3)n2)c1 [Compound 288] | > 0.01 | > 0.01
28 | CS(=O)(=O)n1ccc(C(=O)NCC(=O)Nc2nc(-c3cccc(-c4cnn(C(F)F)n4)c3)cs2)c1 [Compound 289] | > 0.01 | > 0.01
29 | CS(=O)(=O)n1ccc(C(=O)NCC(=O)Nc2nc(-c3cccc(N4CC[C@@H](N)[C@H](F)C4)c3)cs2)c1 [Compound 290] | < 0.01 | > 0.01
30 | C[C@@H]1C[C@@H](COc2cccc(-c3csc(NC(=O)CNC(=O)c4ccn(S(C)(=O)=O)c4)n3)c2)C[C@H](C)O1 [Compound 291] | > 0.01 | > 0.01
31 | C[C@@H]1C[C@H](COc2cccc(-c3csc(NC(=O)CNC(=O)c4ccn(S(C)(=O)=O)c4)n3)c2)C[C@H](C)O1 [Compound 292] | > 0.1 | > 0.1
32 | C[C@@H]1CN(c2cc(-c3csc(NC(=O)CNC(=O)c4ccn(S(C)(=O)=O)c4)n3)ccc2F)C[C@H](C)O1 [Compound 293] | < 0.01 | < 0.01
33 | C[C@@H]1CN(c2cccc(-c3csc(NC(=O)CNC(=O)c4ccn(S(C)(=O)=O)c4)n3)c2F)C[C@H](C)O1 [Compound 294] | > 0.01 | > 0.01
34 | C[C@@H]1CN(c2cc(F)cc(-c3csc(NC(=O)CNC(=O)c4ccn(S(C)(=O)=O)c4)n3)c2)C[C@H](C)O1 [Compound 295] | < 0.01 | < 0.01
35 | Cc1cc(-c2cccc(-c3csc(NC(=O)CNC(=O)c4ccn(S(C)(=O)=O)c4)n3)c2)on1 [Compound 296] | > 0.01 | > 0.01
36 | C[C@@H]1CN(c2ccc(F)c(-c3csc(NC(=O)CNC(=O)c4ccn(S(C)(=O)=O)c4)n3)c2)C[C@H](C)O1 [Compound 297] | > 0.01 | > 0.1
37 | CS(=O)(=O)n1ccc(C(=O)NCC(=O)Nc2nc(-c3cccc(C4CCC4)c3)cs2)c1 [Compound 298] | > 0.01 | > 0.01
38 | C[C@@H]1CN(c2cc(-c3csc(NC(=O)CNC(=O)c4ccn(C(C)(C)C)c4)n3)ccn2)C[C@H](C)O1 [Compound 299] | < 0.01 | > 0.01
39 | CS(=O)(=O)n1ccc(C(=O)NCC(=O)Nc2nc(-c3cccc(OC[C@H]4CCOC4)c3)cs2)c1 [Compound 303, 1-methylsulfonyl-N-[2-oxo-2-[[4-[3-[[(3S)-tetrahydrofuran-3-yl]methoxy]phenyl]thiazol-2-yl]amino]ethyl]pyrrole-3-carboxamide] | < 0.01 | > 0.01
40 | CS(=O)(=O)n1ccc(C(=O)NCC(=O)Nc2nc(-c3cccc(OC[C@@H]4CCOC4)c3)cs2)c1 [Compound 304, 1-methylsulfonyl-N-[2-oxo-2-[[4-[3-[[(3R)-tetrahydrofuran-3-yl]methoxy]phenyl]thiazol-2-yl]amino]ethyl]pyrrole-3-carboxamide] | > 0.01 | > 0.01

From patent US20230079819A1, “COMPOUNDS AND USES THEREOF” (Foghorn Therapeutics Inc., priority 2019, published 2023)
